What was measured:
[1] = Spectrophotometric and NMR analysis of photoisomerization; type: physicochemical
Method: UV and visible light sources of the electrophysiological apparatus were used for the spectrophotometric and NMR experiments. MPC088 samples were analyzed as DMSO solutions in a quartz cuvette (spectrophotometry) and a DMSO-d6 solution in a quartz NMR tube.
To test the stability of cis-MPC088 in darkness, a preparation of 30 μM MPC088 in oocyte Ringer solution that had been converted to predominantly cis form by a 5-min UV illumination was spectrophotometrically analyzed. The sample was subsequently kept in darkness at room temperature.
The UV-induced decrease in membrane current was analyzed by fitting a simple exponential decay function to the waveforms obtained and determining the exponential time constant (τ).

[2] = system: Purkinje neurons (PNs) of the cerebellar slice; assay: Whole-cell current clamp of Purkinje neurons, action potential firing; type: cell-based, mouse
Method: The effects of MPC088 on action potential firing in PNs of the cerebellar slice were also examined. These experiments were similar to those, except that the cells were recorded under current-clamp in order to allow the cell to spike. […] Representative data was obtained by whole-cell current-clamp recording from a PN which was injected with 468 pA to elicit a high-frequency train of action potentials. […] The cell was then exposed for 1-s durations to UV light (UV1), then blue light, and then again with UV (UV2). […] Below this trace is plotted the instantaneous firing frequency vs. time; the dashed line reflects the average firing frequency during the 1-s epoch that preceded the first UV exposure (FIG. 41a). FIG. 41b depicts a summary of results from experiments of the type shown in a. Average spike frequencies were obtained for each cell in each of five 1-s epochs, then normalized to the pre-GABA/MPC088 firing frequency (n=8 cells from 4 animals). Error bars here and in c represent the SEM. Repeated-measures ANOVA on the aggregate data yielded F(3,21)=10.213, p<0.001. […] Significance was determined from post-hoc paired-sample t-tests corrected for multiple comparisons, which yielded p<0.02. […]
To further address whether MPC088 has non-specific effects on excitability, the spikes elicited in the experiment described in FIG. 41 were analyzed. […] Three action potential (AP) parameters were measured: peak amplitude, half width, and maximum rise slope. […] AP waveform parameters were calculated for pre-puff, blue light, and UV epochs. […]
For the voltage-clamp experiments of FIG. 40, each cell was […] between 1-6 trials of the drug application+light flash protocol. […] A peri-stimulus time histogram (PSTH) was calculated for each trial using 250-ms time bins; these were averaged across trials to produce a PSTH for the experiment, using the software TaroTools (Dr. Taro Ishikawa, Jikei University School of Medicine, Tokyo, Japan) and Igor Pro 6.2 (WaveMetrics, Inc., Lake Oswego, Oreg.).

[3] = 2.0 mM in DMSO-d6, before illumination
[4] = after UV illumination for 5 min
[5] = after UV, then visible light for 10 min

CC(C)c1cc(CCCC(=O)NCc2ccc(/N=N/c3ccc(C(=O)NCCN)cc3)cc2)cc(C(C)C)c1O [MPC088, (E)-N-(2-Aminoethyl)-4-((4-((4-(4-hydroxy-3,5-diisopropylphenyl)butanamido)methyl)phenyl)diazenyl)benzamide]
cis-isomer content (1H NMR) [1, 3]: 6% | trans-isomer content (1H NMR) [1, 3]: 94% | time constant of absorbance change at 338 nm ([1]; UV light, nominal intensity): 1.7 ± 0.3 s | cis-isomer content (1H NMR) [1, 4]: 91% | trans-isomer content (1H NMR) [1, 4]: 9% | cis-isomer content (1H NMR) [1, 5]: 19% | trans-isomer content (1H NMR) [1, 5]: 81% | time constant of absorbance change at 338 nm ([1]; reduced-intensity UV light (10% of nominal)): 22 ± 3 s | time constant of absorbance change at 338 nm ([1]; visible light): 36 ± 2 s | firing rate produced by blue light relative to that produced by UV light ([2]; 10 μM GABA + 30 μM MPC088, UV-Blue-UV flashes): 52±14% | decrease of firing rate ([2]; 10 μM GABA + 30 μM trans-dominant MPC088): approximately 50% | effects on AP waveform ([2]; peak amplitude, half width, maximum rise slope): no detectable effects

— patent US9399145B2, “Nanoscale neuromodulating platform for retina neuron activation apparatus and method” (The Board of Trustees of the University of Illinois, priority 2005, dated 2016)
